Results as given in patent US8329645B2, “Polymyxin derivatives and uses thereof” (priority 2008, dated 2012).

Key:
[1] = test system: E. coli (ATCC25922 and IH3080), K. pneumoniae ATCC13883, and E. cloacae ATCC23355; experiment: E-test sensitization by NAB7061, range over the tested strains; format: cell-based; settings: four tested strains
Description: (§1) MICs were determined by using E-strips (Biodisk Ltd., Solna, Sweden) according to the manufacturer's instructions.

E. coli ATCC25922 = settings: E. coli ATCC25922
Description: as §1
(§2) The strains originated from ATCC (11 strains), CCUG (11 strains), and NCTC (The National Collection of Type Cultures, Colindale, U.K.; 2 strains). Eight strains (the F-strains) were purchased from Mobidiag Ltd., Helsinki, Finland.

K. pneumoniae ATCC13883 = settings: K. pneumoniae ATCC13883
Description: as §1, §2

E. cloacae ATCC23355 = experiment: E-test MIC with or without NAB7061 (4 μg/ml), Mueller-Hinton agar; format: cell-based, Enterobacter cloacae
Description: as §1, §2

E. coli IH3080 = experiment: as above; format: cell-based, Escherichia coli
Description: as §1, §2

A. baumannii F264 = experiment: E-test MIC of antibiotics on Mueller Hinton agar containing increasing concentrations of NAB739; format: cell-based, Acinetobacter baumannii
[2] = test system: both Acinetobacter strains (ATCC 19606 and F264); experiment: E-test sensitization by NAB739, both strains; format: cell-based, Acinetobacter baumannii
P. aeruginosa ATCC 27853 = experiment: E-test MIC of antibiotics on Mueller Hinton agar containing increasing concentrations of NAB739; format: cell-based, Pseudomonas aeruginosa
A. baumannii ATCC19606 = experiment: as above; format: cell-based, Acinetobacter baumannii
[3] = molecular target: brush-border membrane (BBM) from the renal cortex; experiment: Inhibition of binding of radiolabelled gentamycin to brush-border membrane vesicles; settings: rat renal cortex BBM vesicles; 20 μM [3H] gentamycin; 60 min at 4° C.
Source text: The binding of the compounds according to this invention to isolated brush-border membrane (BBM) from the renal cortex can be measured indirectly by measuring their ability to inhibit the binding of radiolabelled gentamycin to BBM. Accordingly, the compounds according to this invention that have less affinity to BBM than for example polymyxin B inhibit the binding of radiolabelled gentamycin to a lesser degree than does polymyxin B.
BBM was isolated from the renal cortex of male albino rats by using the Mg^2+/EGTA precipitation technique as described by Nagai et al. (2006). The binding of gentamycin was measured, according to the method described by Nagai et al. (2006) by incubating BBM vesicles (20 μl) in 10 mM HEPES (pH 7.5) with 300 mM mannitol in the presence of 20 μM [^3H] gentamycin (American Radiolabeled Chemicals, Inc. (St. Louis, Mo., U.S.A.) with or without the compound to be tested or a positive control. After an incubation of 60 min at 4° C., 1 ml of ice-cold buffer described above was added, and the mixture was filtered through a Millipore filter (0.45 μm; HAWP). The filter was washed with the buffer and the radioactivity remaining in the filter was measured by using a liquid scintillation counter. The IC50 values were determined as in Nagai et al. (2006) using the Hill equation.

Compound	Sensitization factor to antibiotic at 4 μg/ml of NAB7061, range over the tested strains [1]	Sensitization factor to antibiotic (MIC without / with 4 μg/ml of NAB 7061) (E. coli ATCC25922)	Sensitization factor to antibiotic (MIC without / with 4 μg/ml of NAB 7061) (K. pneumoniae ATCC13883)	Sensitization factor to antibiotic (MIC without / with 4 μg/ml of NAB 7061) (E. cloacae ATCC23355)	Sensitization factor to antibiotic (MIC without / with 4 μg/ml of NAB 7061) (E. coli IH3080)	MIC of antibiotic in the presence of NAB739 (A. baumannii F264; NAB 739 0 μg/ml) [µg/mL]	MIC of antibiotic in the presence of NAB739 (A. baumannii F264; NAB 739 0.5 μg/ml) [µg/mL]	MIC of antibiotic in the presence of NAB739 (A. baumannii F264; NAB 739 1 μg/ml) [µg/mL]	sensitization factors to antibiotic at NAB739 0.5 μg/ml [2]	MIC of antibiotic in the presence of NAB739 (P. aeruginosa ATCC 27853; NAB 739 0 μg/ml) [µg/mL]	MIC of antibiotic in the presence of NAB739 (P. aeruginosa ATCC 27853; NAB 739 0.5 μg/ml) [µg/mL]	MIC of antibiotic in the presence of NAB739 (P. aeruginosa ATCC 27853; NAB 739 1 μg/ml) [µg/mL]	MIC of antibiotic in the presence of NAB739 (P. aeruginosa ATCC 27853; NAB 739 2 μg/ml) [µg/mL]	MIC of antibiotic in the presence of NAB739 (P. aeruginosa ATCC 27853; NAB 739 […]) [µg/mL]	MIC of antibiotic in the presence of NAB739 (A. baumannii ATCC19606; NAB 739 0 μg/ml) [µg/mL]	MIC of antibiotic in the presence of NAB739 (A. baumannii ATCC19606; NAB 739 0.5 μg/ml) [µg/mL]	MIC of antibiotic in the presence of NAB739 (A. baumannii ATCC19606; NAB 739 1 μg/ml) [µg/mL]	IC50 [3] [µM]
CC[C@H]1OC(=O)[C@H](C)[C@@H](O[C@H]2C[C@@](C)(OC)[C@@H](O)[C@H](C)O2)[C@H](C)[C@@H](O[C@@H]2O[C@H](C)C[C@H](N(C)C)[C@H]2O)[C@](C)(O)C[C@@H](C)CN(C)[C@H](C)[C@@H](O)[C@]1(C)O [Azithromycin]	31-94	24-64	31-43	32	31-94	–	–	–	–	–	–	–	–	–	–	–	–	–
CC(=O)O[C@H]1C[C@@]2(C)[C@@H](C[C@@H](O)[C@H]3[C@@]4(C)CC[C@@H](O)[C@@H](C)[C@@H]4CC[C@@]32C)/C1=C(\CCC=C(C)C)C(=O)O [Fusidic acid]	–	>43	>4	>8	>43	>256	3	1	64-85	>256	>256	>256	192	>256	>256	4	1	–
C/C(=C\C(=O)OCCCCCCCCC(=O)O)C[C@@H]1OC[C@H](C[C@@H]2O[C@H]2[C@@H](C)[C@H](C)O)[C@@H](O)[C@H]1O [Mupirocin]	24-512	64-170	24-32	250-512	64-85	–	–	–	–	–	–	–	–	–	–	–	–	–
CN[C@H](CC(C)C)C(=O)N[C@H]1C(=O)N[C@@H](CC(N)=O)C(=O)N[C@H]2C(=O)N[C@H]3C(=O)N[C@H](C(=O)N[C@H](C(=O)O)c4cc(O)cc(O)c4-c4cc3ccc4O)[C@H](O)c3ccc(c(Cl)c3)Oc3cc2cc(c3O[C@@H]2O[C@H](CO)[C@@H](O)[C@H](O)[C@H]2O[C@H]2C[C@](C)(N)[C@H](O)[C@H](C)O2)Oc2ccc(cc2Cl)[C@H]1O [Vancomycin]	–	5	1	32	2.5	>256	3	1	85	>256	>256	>256	>256	>256	>256	3	1	–
gentamycin [reference compound]	–	–	–	–	–	–	–	–	–	–	–	–	–	–	–	–	–	90.2 ± 9.7
